Experimental data reported in patent US20130172248A1, “3-[4-(PHENYLAMINOOXALYLAMINO)PHENYL]HEX-4-YNOIC ACIDS, PROCESS FOR PREPARATION THEREOF AND USE THEREOF AS A MEDICAMENT” (priority 2012, published 2013).

Experiments:
[1] = biological target: T1, GPCR GPR40 (human) (Homo sapiens, UniProt O14842); experiment: In vitro FLIPR assay with recombinant HEK293 cells which express the GPCR GPR40 (intracellular Ca2+); assay type: cell-based; conditions: recombinant HEK293 cells expressing human GPR40; 100% = 10 μM linoleic acid reference agonist; read-out: hGPR40 EC50
T1 construct: expressed in transfected cells; host or cells: HEK293
Method: In Vitro FLIPR Assay with Recombinant Cells which Express the GPCR GPR40
Function-testing assays were performed by means of the FLIPR technique (“Fluorescence Imaging Plate Reader”, Molecular Devices Corp.). For this purpose, agonist-induced changes were determined in the intracellular concentration of Ca^2+ in recombinant HEK293 cells which expressed the GPCR GPR40 (human).
For the studies, cells were sown into 96-well microtiter plates (60 000 cells/well) and left to grow overnight. The medium was removed and the cells were incubated in buffer which contained the fluorescent dye Fluo-4. After this loading with dye, the cells were washed, test substance was added and changes were measured in the intracellular Ca^2+ concentration in the FLIPR instrument. Results were presented as the percentage change relative to the control (0%: no test substance added; 100%: 10 μM linoleic acid reference agonist added) and used for calculation of dose/efficacy curves, and the EC50 values were thus determined. The mean effective concentration (EC50) is the dose at which a half-maximum effect is observed.

[2] = tested on: human S1P1 receptor; experiment: Determination of S1P1 receptor activation (intracellular calcium release, FLIPR, CHO cells); assay type: cell-based; conditions: compound at 10 μM; in percent of activation by 100 nM S1P
Method: Determination of S1P1 Receptor Activation
The activation of the S1P1 receptor by the chemical compounds described in the present invention disclosure was determined via the S1P1 receptor-mediated release of intracellular calcium.
The CHO (chinese hamster ovarian) cells used here was stably overexpressed with the human S1P1 receptor (Flp-In System, Invitrogen). In order to amplify the signal transduction of the receptor in the direction of a cellular calcium response, a receptor modified at the C terminus was used, which contained the sequence of a modified G protein (Gαi4qi4) (WO 02/04665). The changes in intracellular calcium were determined by means of the calcium-sensitive fluorescent dye Fluo-4 (Invitrogen) in an appropriate plate reader (FLIPR, […]).
To prepare the measurement, the cells were sown in 96-well plates (Becton Dickinson, Biocoat cellware, poly-D-lysine coated, #354640) with 40 000 cells per cavity between 18 and 24 hours before the calcium measurement. For the intervening period, the cells were cultivated in an incubator under 95% air humidity with 5% CO2 gas in a medium based on F-12 Glutamax (Gibco #31765), which was additionally supplemented with 1% (vol/vol) penicillin/streptomycin (PAN, #P06-07100), 10% (vol/vol) fetal calf serum (Hyclone charcoal/dextran treated FBS #SH30068) and Hygromycin B (final concentration 300 mg/l; Invitrogen, #10687-010).
For calcium measurement, the cells were laden beforehand with the acetoxymethyl ester derivative of the Fluo-4 dye (Fluo-4 AM, Invitrogen, #F14202) for 60 min. During the loading, which took place in the incubator under the conditions specified above, the cells were incubated with an HBSS buffer (Hanks' Balanced Salt Solution; Invitrogen #14065049) which had been supplemented with Fluo-4 AM (acetoxymethyl ester of Fluo-4; 2 μM; all figures are based on final concentrations), Pluronic® F-127 (0.05% vol/vol; Invitrogen, #P-3000 MP), HEPES (20 mM; Gibco #15630), probenecid (2.5 mM; Sigma #P-8761) and bovine serum albumin (0.05%; Sigma #A-6003). This buffer was finally adjusted to a pH of 7.5 with sodium hydroxide.
During the loading with Fluo-4, the acetoxymethyl ester is cleaved by intracellular esterases, and so there is intracellular accumulation of the dye. The loading of the cells was ended by washing three times (Tecan, Power Washer) with a wash buffer.
The wash buffer was also used for the later fluorescence-based calcium measurement. In this case, the laden and washed cells were stimulated with the compounds described (dissolved in DMSO; maximum final DMSO concentration 0.3%) in different concentrations. […]
All measurements were conducted as triplicates, and the individual values thereof were averaged for further calculation. The percentage activation of the S1P1 receptor, which was caused in some cases by the compounds described, was calculated using the S1P-related calcium response (positive control). Before this calculation, a background correction took place, by subtracting the value of the base control (DMSO control) from all other fluorescence values detected.
Using the specific cellular fluorescence response at different concentrations of the compounds used, concentrations were calculated at which the cell response was at half maximum (EC50 value). […] Here too, the percentage activation of the receptor was calculated using the positive control (S1P, 100 nM) and base control (DMSO control).

T1 sequence (O14842 whole entry): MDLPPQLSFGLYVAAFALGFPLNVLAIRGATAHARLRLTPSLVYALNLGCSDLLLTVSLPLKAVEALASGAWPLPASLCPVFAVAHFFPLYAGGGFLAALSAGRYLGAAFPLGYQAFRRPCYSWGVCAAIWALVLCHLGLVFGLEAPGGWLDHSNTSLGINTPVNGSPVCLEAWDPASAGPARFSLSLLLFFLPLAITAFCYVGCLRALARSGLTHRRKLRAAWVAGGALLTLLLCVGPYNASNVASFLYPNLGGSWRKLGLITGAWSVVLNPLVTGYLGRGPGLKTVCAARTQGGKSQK

Compound | EC50 [1] [nM] | S1P1 receptor activation, % activation [2] [%]
CC#C[C@@H](CC(=O)O)c1ccc(NC(=O)C(=O)Nc2cc(C(F)(F)F)ccc2C(F)(F)F)cc1 [Example 1, (S)-3-{4-[(2,5-bis(trifluoromethyl)phenylaminooxalyl)amino]phenyl}hex-4-ynoic acid] | 0.4 | 0
CC#C[C@@H](CC(=O)O)c1ccc(NC(=O)C(=O)Nc2cccc(C(C)(C)C)c2)cc1 [Example 2, (S)-3-{4-[(3-tert-butylphenylaminooxalyl)amino]phenyl}hex-4-ynoic acid] | 2 | 1
CC#C[C@@H](CC(=O)O)c1ccc(NC(=O)C(=O)Nc2cc(C(F)(F)F)ccc2C)cc1 [Example 3, (S)-3-{4-[(2-methyl-5-trifluoromethylphenylaminooxalyl)amino]phenyl}hex-4-ynoic acid] | 4 | 1
CC#C[C@@H](CC(=O)O)c1ccc(NC(=O)C(=O)Nc2cccc(C(C)C)c2)cc1 [Example 4, (S)-3-{4-[(3-isopropylphenylaminooxalyl)amino]phenyl}hex-4-ynoic acid] | 7 | 0
CC#C[C@@H](CC(=O)O)c1ccc(NC(=O)C(=O)Nc2cc(C(F)(F)F)ccc2Cl)cc1 [Example 5, (S)-3-{4-[(2-chloro-5-trifluoromethylphenylaminooxalyl)amino]phenyl}hex-4-ynoic acid] | 2 | 0
CC#C[C@H](CC(=O)O)c1ccc(NC(=O)C(=O)Nc2cc(C(F)(F)F)ccc2C(F)(F)F)cc1 [compound 6, (R)-3-{4-[(2,5-bis(trifluoromethyl)phenylaminooxalyl)amino]phenyl}hex-4-ynoic acid, reference compound] | 734 | 
CC#C[C@H](CC(=O)O)c1ccc(NC(=O)C(=O)Nc2cccc(C(C)(C)C)c2)cc1 [compound 7, (R)-3-{4-[(3-tert-butylphenylaminooxalyl)amino]phenyl}hex-4-ynoic acid, reference compound] | 1550 | 
CC#C[C@H](CC(=O)O)c1ccc(NC(=O)C(=O)Nc2cc(C(F)(F)F)ccc2C)cc1 [compound 8, (R)-3-{4-[(2-methyl-5-trifluoromethylphenylaminooxalyl)amino]phenyl}hex-4-ynoic acid, reference compound] | 1780 | 
CC#C[C@H](CC(=O)O)c1ccc(NC(=O)C(=O)Nc2cccc(C(C)C)c2)cc1 [compound 9, (R)-3-{4-[(3-isopropylphenylaminooxalyl)amino]phenyl}hex-4-ynoic acid, reference compound] | 2070 | 
CC#C[C@H](CC(=O)O)c1ccc(NC(=O)C(=O)Nc2cc(C(F)(F)F)ccc2Cl)cc1 [compound 10, (R)-3-{4-[(2-chloro-5-trifluoromethylphenylaminooxalyl)amino]phenyl}hex-4-ynoic acid, reference compound] | 2290 | 
